Experiments:
[1] = system: M. bovis infected cattle; conditions: Mustafa et al., 2006, cited from earlier work
[2] = system: PBMC isolated from M. bovis-infected cattle; format: cell-based
[3] = system: PBMC isolated from M. bovis-infected cattle; format: cell-based; remark: listed apart in the source

Substance	intracellular IFN-γ production [2]	recognition / response in ELISPOT (cattle responding of the three tested) [3]	other results
Rv3616c: product of the first gene of the Rv3616c-Rv3612c operon, a dominant mycobacterial antigen (Mustafa et al., 2006)			vaccinated individuals that respond ([1]; BCG vaccinated): 40%; frequency of recognition in M. bovis infected cattle [1]: 84.6%
LGSSLHTAGV DLAKSLRIAA (LGSSLHTAGVDLAKSLRIAA; fragment of full length protein) [SEQ ID NO: 10]	Markedly higher levels of IFN-γ		
VYLTAHNALG SSLHTAGVDL (VYLTAHNALGSSLHTAGVDL; fragment of full length protein) [SEQ ID NO: 9]	Markedly higher levels of IFN-γ		
RIAAKIYSEA DEAWRKAIDG (RIAAKIYSEADEAWRKAIDG; fragment of full length protein) [SEQ ID NO: 12]	Markedly higher levels of IFN-γ		
AKIYSEADEA WRKAIDGLFT (AKIYSEADEAWRKAIDGLFT; fragment of full length protein) [SEQ ID NO: 13]	Markedly higher levels of IFN-γ	all three	average spot-forming units (SFU) [3]: 509 SFU per 10^6 PBMC
GVDLAKSLRI AAKIYSEADE (GVDLAKSLRIAAKIYSEADE; fragment of full length protein) [SEQ ID NO: 11]	no IFN-γ response	a response was recorded	dead cells in the sample [2]: > 64%
